Experiment [1] addresses Tyrosyl-DNA phosphodiesterase 1 (Homo sapiens, UniProt Q9NUW8). Description: ChEBML_1689436. On the procedure: Inhibition of recombinant TDP1 (unknown origin) using 5'-[32P]-labeled single stranded DNA containing a 3'-phosphotyrosine as substrate after 15 mins by PAGE analysis
Experiment [2] concerns the target T1, Tyrosyl-DNA phosphodiesterase 2 (Homo sapiens, UniProt O95551).
T1 sequence (O95551 whole entry): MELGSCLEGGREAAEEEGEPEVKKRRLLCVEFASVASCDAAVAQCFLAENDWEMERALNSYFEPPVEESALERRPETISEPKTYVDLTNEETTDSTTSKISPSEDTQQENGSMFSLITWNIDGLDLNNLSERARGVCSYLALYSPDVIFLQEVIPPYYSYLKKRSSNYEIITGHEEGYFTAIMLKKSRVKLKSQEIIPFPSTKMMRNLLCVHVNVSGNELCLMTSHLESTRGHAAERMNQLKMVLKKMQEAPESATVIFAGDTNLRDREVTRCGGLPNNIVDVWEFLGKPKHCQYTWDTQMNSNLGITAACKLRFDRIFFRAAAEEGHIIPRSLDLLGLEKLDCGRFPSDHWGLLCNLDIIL
Description: ChEBML_1689437.
Description: Inhibition of recombinant human TDP2 using 3'-labeled alpha-[32P]-cordycepin as substrate after 15 mins

SMILES strings stand for the structures. pIC50: −log10 of the molar value. Some results are limits rather than exact numbers.

In general, pIC50 refers to −log10 of the IC50, conventionally taken in molar units. High values mean a low IC50, low ones a high IC50.

Sequence of Tyrosyl-DNA phosphodiesterase 1 (Q9NUW8 whole entry): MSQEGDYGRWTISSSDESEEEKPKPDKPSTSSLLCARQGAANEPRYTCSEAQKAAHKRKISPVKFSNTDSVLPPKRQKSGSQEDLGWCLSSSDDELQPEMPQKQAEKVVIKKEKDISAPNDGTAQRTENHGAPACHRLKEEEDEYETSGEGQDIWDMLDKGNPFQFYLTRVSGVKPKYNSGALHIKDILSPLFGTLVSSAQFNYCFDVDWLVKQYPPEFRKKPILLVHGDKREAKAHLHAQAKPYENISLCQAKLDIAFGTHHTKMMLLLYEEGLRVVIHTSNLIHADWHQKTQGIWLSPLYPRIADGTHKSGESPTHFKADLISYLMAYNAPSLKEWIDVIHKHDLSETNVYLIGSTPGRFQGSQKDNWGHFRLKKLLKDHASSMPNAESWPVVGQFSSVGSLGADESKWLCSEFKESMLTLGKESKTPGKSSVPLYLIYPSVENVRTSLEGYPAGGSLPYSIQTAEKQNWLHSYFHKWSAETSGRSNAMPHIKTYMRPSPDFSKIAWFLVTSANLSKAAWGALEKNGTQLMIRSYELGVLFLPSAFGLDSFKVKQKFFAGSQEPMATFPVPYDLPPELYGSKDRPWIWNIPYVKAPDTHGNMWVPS

In the case of `CC[C@@]1(O)C(=O)OCc2c1cc1n(c2=O)Cc2cc3ccccc3nc2-1` [4-Ethyl-4-hydroxy-1,12-dihydro-4H-2-oxa-6,12a-diaza-dibenzo[b,h]fluorene-3,13-dione (Camptothecin)], the negative logarithm of the IC50 (pIC50) in experiment [1] and in experiment [2] was less than 3.95 in each case.

The values are drawn from BindingDB's records for doi:10.1021/acs.jmedchem.6b01870 (Purdue University, 2017).
